± gives the expanded uncertainty stated by the source.
Columns and labels:
[1] = xn = mol fraction of the nth substance listed; conditions: 101.3 kPa, Liquid
[2] = 101.3 kPa, Liquid
[3] = molar heat capacity at constant pressure; conditions: 298.15 K; 101.33 kPa; Liquid; Flow calorimetry

N#Cc1ccccc1 [benzonitrile] + Cc1cc(C)cc(C)c1
[1]
Conditions | excess molar heat capacity, 298.15 K [J/K/mol] | mass density, 298.15 K [kg/m3] | mass density, 308.15 K [kg/m3]
x1 = 0.073 | – | 869.06 ± 0.46 | 860.02 ± 0.47
x1 = 0.0754 | 0.726 ± 0.052 | – | –
x1 = 0.1029 | 0.966 ± 0.052 | – | –
x1 = 0.1412 | – | 876.92 ± 0.43 | 867.88 ± 0.45
x1 = 0.1917 | – | 882.87 ± 0.41 | 873.78 ± 0.43
x1 = 0.2104 | 1.56 ± 0.054 | – | –
x1 = 0.283 | 1.84 ± 0.055 | – | –
x1 = 0.2955 | – | 895.5 ± 0.38 | 886.4 ± 0.39
x1 = 0.3596 | – | 903.59 ± 0.35 | 894.43 ± 0.37
x1 = 0.381 | 2.016 ± 0.055 | – | –
x1 = 0.4531 | – | 915.84 ± 0.32 | 906.58 ± 0.33
x1 = 0.4702 | 1.987 ± 0.055 | – | –
x1 = 0.5128 | – | 923.9 ± 0.3 | 914.75 ± 0.31
x1 = 0.5479 | 1.864 ± 0.055 | – | –
x1 = 0.6098 | – | 937.51 ± 0.27 | 928.28 ± 0.28
x1 = 0.6441 | 1.563 ± 0.054 | – | –
x1 = 0.7005 | – | 950.89 ± 0.23 | 941.57 ± 0.25
x1 = 0.712 | 1.3 ± 0.053 | – | –
x1 = 0.7895 | – | 964.64 ± 0.2 | 955.31 ± 0.21
x1 = 0.8092 | 0.861 ± 0.052 | – | –
x1 = 0.879 | – | 979.23 ± 0.17 | 969.79 ± 0.18
x1 = 0.9041 | 0.428 ± 0.051 | – | –
x1 = 0.9501 | 0.177 ± 0.05 | – | –
x1 = 0.9536 | – | 991.98 ± 0.15 | 982.49 ± 0.16
x1 = 1 | – | 1000.25 ± 0.13 | 990.67 ± 0.15

CCc1ccccc1 [ethylbenzene] + N#Cc1ccccc1
[1], x2 = 0
Conditions | mass density [kg/m3]
298.15 K | 862.41 ± 0.49
308.15 K | 852.72 ± 0.5

Cc1ccccc1C [1,2-dimethylbenzene]
[2]
Conditions | mass density [kg/m3]
298.15 K | 875.55 ± 0.47
308.15 K | 866.29 ± 0.48

Conditions | molar heat capacity at constant pressure [J/K/mol]
[3] | 187.28 ± 0.39

Cc1cccc(C)c1 [1,3-dimethylbenzene] + N#Cc1ccccc1
[1], x2 = 0
Conditions | mass density [kg/m3]
298.15 K | 859.68 ± 0.49
308.15 K | 850.01 ± 0.5

Cc1cc(C)cc(C)c1 [1,3,5-trimethylbenzene] + N#Cc1ccccc1
[1], x2 = 0
Conditions | mass density [kg/m3]
298.15 K | 860.9 ± 0.49
308.15 K | 851.88 ± 0.5

N#Cc1ccccc1 [benzonitrile] + COc1ccccc1
mass density [kg/m3], [1]
Conditions | 298.15 K | 308.15 K
x1 = 0.0168 | 989.23 ± 0.33 | 979.02 ± 0.34
x1 = 0.0762 | 990.08 ± 0.31 | 979.91 ± 0.32
x1 = 0.1199 | 990.69 ± 0.3 | 980.57 ± 0.31
x1 = 0.2462 | 992.32 ± 0.26 | 982.29 ± 0.27
x1 = 0.3042 | 993.03 ± 0.24 | 983.06 ± 0.25
x1 = 0.3614 | 993.71 ± 0.23 | 983.73 ± 0.24
x1 = 0.5068 | 995.35 ± 0.19 | 985.48 ± 0.21
x1 = 0.5823 | 996.16 ± 0.18 | 986.31 ± 0.19
x1 = 0.6772 | 997.14 ± 0.16 | 987.35 ± 0.18
x1 = 0.7832 | 998.21 ± 0.15 | 988.45 ± 0.16
x1 = 0.9105 | 999.44 ± 0.14 | 989.77 ± 0.15
x1 = 1 | 1000.25 ± 0.13 | 990.67 ± 0.15

N#Cc1ccccc1 [benzonitrile] + Cc1cccc(C)c1
[1], 298.15 K, Flow calorimetry
Conditions | excess molar heat capacity [J/K/mol]
x1 = 0.0568 | 0.522 ± 0.1
x1 = 0.0772 | 0.686 ± 0.1
x1 = 0.1671 | 1.299 ± 0.11
x1 = 0.2404 | 1.53 ± 0.11
x1 = 0.3272 | 1.727 ± 0.11
x1 = 0.4115 | 1.696 ± 0.11
x1 = 0.4878 | 1.66 ± 0.11
x1 = 0.5753 | 1.415 ± 0.11
x1 = 0.6422 | 1.272 ± 0.11
x1 = 0.7301 | 0.936 ± 0.1
x1 = 0.8157 | 0.683 ± 0.1
x1 = 0.887 | 0.377 ± 0.1
x1 = 0.9334 | 0.254 ± 0.1

mass density [kg/m3], [1]
Conditions | x1 = 0.0741 | x1 = 0.1804 | x1 = 0.316 | x1 = 0.4608 | x1 = 0.5438 | x1 = 0.6475 | x1 = 0.74 | x1 = 0.8816 | x1 = 0.899 | x1 = 1
298.15 K | 869.26 ± 0.46 | 883.15 ± 0.42 | 901.15 ± 0.36 | 920.81 ± 0.31 | 932.33 ± 0.28 | 947.01 ± 0.25 | 960.47 ± 0.21 | 981.74 ± 0.17 | 984.42 ± 0.16 | 1000.25 ± 0.13
308.15 K | 859.61 ± 0.47 | 873.5 ± 0.43 | 891.52 ± 0.38 | 911.17 ± 0.33 | 922.69 ± 0.3 | 937.4 ± 0.26 | 950.87 ± 0.23 | 972.18 ± 0.18 | 974.85 ± 0.18 | 990.67 ± 0.15

N#Cc1ccccc1 [benzonitrile] + CCc1ccccc1
[1]
Conditions | excess molar heat capacity, 298.15 K [J/K/mol] | mass density, 298.15 K [kg/m3] | mass density, 308.15 K [kg/m3]
x1 = 0.0616 | – | 870.36 ± 0.46 | 860.67 ± 0.47
x1 = 0.0673 | – | 871.08 ± 0.46 | 861.35 ± 0.47
x1 = 0.0699 | 0.77 ± 0.052 | – | –
x1 = 0.1221 | 1.239 ± 0.053 | – | –
x1 = 0.1384 | – | 880.39 ± 0.43 | 870.62 ± 0.44
x1 = 0.219 | 1.824 ± 0.055 | – | –
x1 = 0.2367 | – | 893.17 ± 0.39 | 883.4 ± 0.4
x1 = 0.3021 | 2.096 ± 0.055 | – | –
x1 = 0.3478 | 2.184 ± 0.055 | – | –
x1 = 0.3726 | – | 911.19 ± 0.34 | 901.43 ± 0.35
x1 = 0.4424 | 2.181 ± 0.055 | – | –
x1 = 0.4563 | – | 922.38 ± 0.31 | 912.65 ± 0.33
x1 = 0.4991 | – | 928.14 ± 0.3 | 918.47 ± 0.31
x1 = 0.5151 | 2.098 ± 0.055 | – | –
x1 = 0.5903 | – | 940.59 ± 0.26 | 931 ± 0.28
x1 = 0.5925 | 1.917 ± 0.055 | – | –
x1 = 0.6379 | 1.786 ± 0.054 | – | –
x1 = 0.6935 | – | 955 ± 0.23 | 945.46 ± 0.24
x1 = 0.7404 | 1.395 ± 0.053 | – | –
x1 = 0.7801 | – | 967.39 ± 0.2 | 957.85 ± 0.21
x1 = 0.8033 | 1.119 ± 0.053 | – | –
x1 = 0.8857 | 0.666 ± 0.052 | – | –
x1 = 0.8862 | – | 983.01 ± 0.16 | 973.45 ± 0.18
x1 = 0.947 | 0.33 ± 0.051 | – | –
x1 = 0.9502 | – | 992.6 ± 0.15 | 983.07 ± 0.16
x1 = 1 | – | 1000.25 ± 0.13 | 990.67 ± 0.15

Cc1ccc(C)cc1 [1,4-dimethylbenzene] + N#Cc1ccccc1
[1], x2 = 0
Conditions | mass density [kg/m3]
298.15 K | 856.48 ± 0.49
308.15 K | 846.98 ± 0.51

— the NIST ThermoML archive (doi:10.1016/j.jct.2006.09.007)
